Source: PubChem BioAssay (NCI)
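96-well plates; 48 h exposure; 5 concentrations. Endpoints by linear interpolation between flanking doses. Not reached: highest tested concentration assigned. GI50 marks 50% less growth. The concentration for full growth arrest is given as TGI.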

Assays:
Assay in all cases: DTP human tumour cell line panel, 48 h
[1] = test system: 786-0 renal
[2] = test system: A498 renal
[3] = test system: A549 NSCLC
[4] = test system: ACHN renal
[5] = test system: BT-549 breast
[6] = test system: CAKI-1 renal
[7] = test system: CCRF-CEM leukemia
[8] = test system: COLO 205 colon
[9] = test system: DU-145 prostate
[10] = test system: EKVX NSCLC
[11] = test system: HCC-2998 colon
[12] = test system: HCT-116 colon
[13] = test system: HCT-15 colon
[14] = test system: HL-60(TB) leukemia
[15] = test system: HOP-62 NSCLC
[16] = test system: HOP-92 NSCLC
[17] = test system: HS 578T breast
[18] = test system: HT29 colon
[19] = test system: IGROV1 ovarian
[20] = test system: K-562 leukemia
[21] = test system: KM12 colon
[22] = test system: LOX IMVI melanoma
[23] = test system: M14 melanoma
[24] = test system: MALME-3M melanoma
[25] = test system: MCF7 breast
[26] = test system: MDA-MB-231 breast
[27] = test system: MDA-MB-435
[28] = test system: MOLT-4 leukemia
[29] = test system: NCI-H226 lung
[30] = test system: NCI-H23 lung
[31] = test system: NCI-H460 lung
[32] = test system: NCI-H522 lung
[33] = test system: NCI/ADR-RES ovarian
[34] = test system: OVCAR-3 ovarian
[35] = test system: OVCAR-4 ovarian
[36] = test system: OVCAR-5 ovarian
[37] = test system: OVCAR-8 ovarian
[38] = test system: PC-3 prostate
[39] = test system: RPMI-8226 leukemia
[40] = test system: RXF 393 renal
[41] = test system: SF-268 CNS
[42] = test system: SF-295 CNS
[43] = test system: SF-539 CNS
[44] = test system: SK-MEL-2 melanoma
[45] = test system: SK-MEL-28 melanoma
[46] = test system: SK-MEL-5 melanoma
[47] = test system: SN12C renal
[48] = test system: SNB-19 CNS
[49] = test system: SNB-75 CNS
[50] = test system: SR leukemia
[51] = test system: SW-620 colon
[52] = test system: T-47D breast
[53] = test system: TK-10 renal
[54] = test system: U251 CNS
[55] = test system: UACC-257 melanoma
[56] = test system: UACC-62 melanoma
[57] = test system: UO-31 renal
[58] = test system: SK-OV-3 ovarian

CC(=O)Oc1c(-c2ccccc2)oc2ccccc12 gave a TGI [1] of 14.2 µM, a TGI [2] of 9.72 µM and a TGI [3] of 3.33 µM. For the same compound, the TGI [4] was 3.28 µM, the TGI [5] was 7.05 µM and the TGI [6] was 2.62 µM. It also gave a TGI [7] of 3.93 µM, a TGI [8] of 3.77 µM and a TGI [9] of 13.9 µM. The TGI [10] was 3.99 µM, the TGI [11] was 2.8 µM and the TGI [12] was 4.12 µM. It also gave a TGI [13] of 5.97 µM, a TGI [14] of 2.69 µM and a TGI [15] of 6 µM. The TGI [16] was 5.4 µM, the TGI [17] was 6.38 µM and the TGI [18] was 5.75 µM. For the same compound, the TGI [19] was 6.56 µM, the TGI [20] was 4.13 µM and the TGI [21] was 2.35 µM. The TGI [22] was 1.41 µM, the TGI [23] was 5.17 µM and the TGI [24] was 5.54 µM. For the same compound, the TGI [25] was 4.3 µM, the TGI [26] was 2.86 µM and the TGI [27] was 6.95 µM. It also gave a TGI [28] of 4.53 µM, a TGI [29] of 5.2 µM and a TGI [30] of 4.15 µM. The TGI [31] was 2.44 µM, the TGI [32] was 5 µM and the TGI [33] was 9.29 µM. For the same compound, the TGI [34] was 6.02 µM, the TGI [35] was 9.85 µM and the TGI [36] was 3.66 µM. The TGI [37] was 12.5 µM, the TGI [38] was 4.55 µM and the TGI [39] was 2.67 µM. The TGI [40] was 3.59 µM, the TGI [41] was 6.3 µM and the TGI [42] was 2.58 µM. For the same compound, the TGI [43] was 2.86 µM, the TGI [44] was 4.35 µM and the TGI [45] was 6.56 µM. It also gave a TGI [46] of 2.8 µM, a TGI [47] of 4.68 µM and a TGI [48] of 11.6 µM. For the same compound, the TGI [49] was 6.35 µM, the TGI [50] was 1.59 µM and the TGI [51] was 11.8 µM. The TGI [52] was 5.9 µM, the TGI [53] was 14 µM and the TGI [54] was 2.76 µM. For the same compound, the TGI [55] was 6.04 µM, the TGI [56] was 8.49 µM and the TGI [57] was 3.96 µM.
CCN(CC)Cc1cc(Nc2c3ccc(Cl)cc3nc3ccc(OC)cc23)ccc1O was tested, and the GI50 [1] was 4.21 µM, the TGI [1] was 15.2 µM and the GI50 [2] was 13.9 µM. The TGI [2] was 27.5 µM, the GI50 [3] was 5.59 µM and the TGI [3] was 21.2 µM. It also gave a GI50 [5] of 17.2 µM, a TGI [5] of 31.4 µM and a GI50 [6] of 2.89 µM. The TGI [6] was 11.7 µM, the GI50 [7] was 3.86 µM and the TGI [7] was 55.6 µM. The GI50 [8] was 1.79 µM, the TGI [8] was 3.34 µM and the GI50 [9] was 5.01 µM. It also gave a TGI [9] of 18.3 µM, a GI50 [10] of 12 µM and a TGI [10] of 34.7 µM. The GI50 [11] was 2.16 µM, the TGI [11] was 3.78 µM and the GI50 [12] was 2.34 µM. For the same compound, the TGI [12] was 6.32 µM, the GI50 [14] was 5.32 µM and the TGI [14] was 25.5 µM. The GI50 [15] was 2.89 µM, the TGI [15] was 10.9 µM and the GI50 [16] was 16.5 µM. For the same compound, the TGI [16] was 31 µM, the GI50 [17] was 12.2 µM and the TGI [17] was 33.1 µM. The GI50 [18] was 2.26 µM, the TGI [18] was 5.03 µM and the GI50 [19] was 5.11 µM. It also gave a TGI [19] of 21.1 µM, a GI50 [20] of 2.65 µM and a TGI [20] of 6.39 µM. For the same compound, the GI50 [21] was 3.17 µM, the TGI [21] was 14.5 µM and the GI50 [22] was 2 µM. The TGI [22] was 3.82 µM, the GI50 [23] was 1.88 µM and the TGI [23] was 3.43 µM. The GI50 [24] was 2.13 µM, the TGI [24] was 4.21 µM and the GI50 [25] was 1.6 µM. The TGI [25] was 4.04 µM, the GI50 [26] was 4.28 µM and the TGI [26] was 15.1 µM. For the same compound, the GI50 [27] was 2.29 µM, the TGI [27] was 6 µM and the GI50 [28] was 4.14 µM. For the same compound, the TGI [28] was 12.2 µM, the GI50 [29] was 7.28 µM and the TGI [29] was 21.4 µM. For the same compound, the GI50 [30] was 6.86 µM, the TGI [30] was 23.3 µM and the GI50 [31] was 4.03 µM. It also gave a TGI [31] of 14.4 µM, a GI50 [32] of 4.62 µM and a TGI [32] of 16.5 µM. For the same compound, the GI50 [33] was 4.7 µM, the TGI [33] was 17.8 µM and the GI50 [34] was 7.59 µM. The TGI [34] was 22.7 µM, the GI50 [35] was 3.66 µM and the TGI [35] was 13.1 µM. It also gave a GI50 [37] of 3.68 µM, a TGI [37] of 12.6 µM and a GI50 [38] of 5.76 µM. For the same compound, the TGI [38] was 22 µM, the GI50 [39] was 2.8 µM and the TGI [39] was 6.63 µM. The GI50 [40] was 1.73 µM, the TGI [40] was 4.36 µM and the GI50 [41] was 4.33 µM. It also gave a TGI [41] of 18.5 µM, a GI50 [42] of 3.5 µM and a TGI [42] of 17.1 µM. For the same compound, the GI50 [44] was 2.36 µM, the TGI [44] was 4.6 µM and the GI50 [45] was 1.77 µM. It also gave a TGI [45] of 3.26 µM, a GI50 [46] of 2.9 µM and a TGI [46] of 10.3 µM. It also gave a GI50 [58] of 11.1 µM, a TGI [58] of 23.4 µM and a GI50 [47] of 5.61 µM. The TGI [47] was 18.3 µM, the GI50 [48] was 6.4 µM and the TGI [48] was 19.3 µM. The GI50 [49] was 5.07 µM, the TGI [49] was 18.9 µM and the GI50 [50] was 3.32 µM. The TGI [50] was 8.99 µM, the GI50 [51] was 3.25 µM and the TGI [51] was 11.1 µM. For the same compound, the GI50 [52] was 2.41 µM, the TGI [52] was 7.25 µM and the GI50 [53] was 7.09 µM. For the same compound, the TGI [53] was 20 µM, the GI50 [54] was 3.04 µM and the TGI [54] was 13.2 µM. For the same compound, the GI50 [55] was 2.17 µM, the TGI [55] was 3.89 µM and the GI50 [56] was 2.11 µM. The TGI [56] was 4.31 µM, the GI50 [57] was 4.16 µM and the TGI [57] was 16.1 µM.
